Measured values as given in the CheMixHub viscosity set.

Assay: xn = mol fraction of the nth substance listed

CC(=O)c1ccc(Cl)cc1 + CNC(C)=O
308.15 K, 101 kPa
Details	viscosity [mPa·s]
x1 = 0.0644	3.273
x1 = 0.1311	3.223
x1 = 0.2036	3.141
x1 = 0.2825	3.035
x1 = 0.3696	2.906
x1 = 0.4664	2.765
x1 = 0.5774	2.604
x1 = 0.7003	2.452
x1 = 0.8405	2.331

BrC(Br)Br + CO
318 K, 101.33 kPa
Details	viscosity [mPa·s]
x1 = 0.163	0.6935
x1 = 0.3122	0.8844
x1 = 0.4563	1.043
x1 = 0.7234	1.261
x1 = 0.8987	1.383

C=Cc1ccccc1 + CO
viscosity [mPa·s], 101.33 kPa
Details	x1 = 0.1005	x1 = 0.192	x1 = 0.3007	x1 = 0.4018	x1 = 0.4981	x1 = 0.5994	x1 = 0.7011	x1 = 0.8049	x1 = 0.8981
298.15 K	0.591	0.623	0.65	0.669	0.679	0.686	0.692	0.701	0.706
303.15 K	0.55	0.583	0.608	0.618	0.634	0.642	0.646	0.655	0.661
308.15 K	0.515	0.543	0.569	0.587	0.594	0.598	0.602	0.61	0.617

CCC(C)(C)OC + CO
298.15 K, 101.33 kPa
Details	viscosity [mPa·s]
x1 = 0.005	0.55
x1 = 0.0339	0.554
x1 = 0.0488	0.556
x1 = 0.0714	0.557
x1 = 0.1129	0.555
x1 = 0.1508	0.552
x1 = 0.1987	0.546
x1 = 0.2009	0.546
x1 = 0.2338	0.541
x1 = 0.2861	0.532
x1 = 0.3409	0.524
x1 = 0.379	0.516
x1 = 0.4252	0.508
x1 = 0.4676	0.5
x1 = 0.5142	0.491
x1 = 0.5503	0.486
x1 = 0.6236	0.477
x1 = 0.6574	0.473
x1 = 0.6944	0.468
x1 = 0.7437	0.462
x1 = 0.7936	0.457
x1 = 0.8642	0.45
x1 = 0.9029	0.446

CCCCCCCCO + CO
viscosity [mPa·s], 101 kPa
Details	298.15 K	308.15 K	318.15 K
x2 = 0.05	6.856	4.941	3.665
x2 = 0.1	6.367	4.633	3.463
x2 = 0.15	5.895	4.331	3.263
x2 = 0.2	5.44	4.035	3.065
x2 = 0.25	5.002	3.746	2.87
x2 = 0.3	4.581	3.464	2.676
x2 = 0.35	4.176	3.189	2.485
x2 = 0.4	3.789	2.921	2.296
x2 = 0.45	3.418	2.661	2.11
x2 = 0.5	3.064	2.41	1.927
x2 = 0.55	2.727	2.166	1.748
x2 = 0.6	2.408	1.933	1.573
x2 = 0.65	2.106	1.708	1.403
x2 = 0.7	1.823	1.495	1.239
x2 = 0.75	1.559	1.292	1.081
x2 = 0.8	1.314	1.101	0.9299
x2 = 0.85	1.089	0.9227	0.787
x2 = 0.9	0.8845	0.7578	0.6532
x2 = 0.95	0.7018	0.6071	0.5296

BrC(Br)Br + COC(C)=O
viscosity [mPa·s], 101 kPa
Details	x1 = 0.0997	x1 = 0.1981	x1 = 0.2985	x1 = 0.406	x1 = 0.5052	x1 = 0.6046	x1 = 0.7016	x1 = 0.7984	x1 = 0.89
298.15 K	0.4806	–	0.7148	0.8716	1.039	1.215	1.403	1.6	1.783
303.15 K	0.4671	0.5871	0.6791	0.8247	0.9763	1.141	1.297	1.5	1.671
308.15 K	0.4465	0.5511	0.6431	0.7797	0.9244	1.07	1.207	1.405	1.57
313.15 K	0.4263	0.511	0.6007	0.7368	0.8701	1.009	1.141	1.317	1.471

CC(C)(C)N + COC(C)=O
303.15 K, 101 kPa
Details	viscosity [mPa·s]
x1 = 0.1513	0.3868
x1 = 0.247	0.4006
x1 = 0.3175	0.4155
x1 = 0.4152	0.4301
x1 = 0.5361	0.4379
x1 = 0.7023	0.4413
x1 = 0.771	0.4432
x1 = 0.8641	0.4438
